Assay [1] deals with T1, Protein cereblon/Tyrosine-protein kinase ABL1/Breakpoint cluster region protein (Homo sapiens, UniProt P00519+P11274+Q96SW2). Description: Protac binding affinity at CRBN/BCR-ABL (unknown origin) assessed as binding to non phosphorylated c-ABL kinase domain by Kinomescan assay. The format is protein assay.
Target sequence in this assay (P00519 whole entry, the tested form may be a part): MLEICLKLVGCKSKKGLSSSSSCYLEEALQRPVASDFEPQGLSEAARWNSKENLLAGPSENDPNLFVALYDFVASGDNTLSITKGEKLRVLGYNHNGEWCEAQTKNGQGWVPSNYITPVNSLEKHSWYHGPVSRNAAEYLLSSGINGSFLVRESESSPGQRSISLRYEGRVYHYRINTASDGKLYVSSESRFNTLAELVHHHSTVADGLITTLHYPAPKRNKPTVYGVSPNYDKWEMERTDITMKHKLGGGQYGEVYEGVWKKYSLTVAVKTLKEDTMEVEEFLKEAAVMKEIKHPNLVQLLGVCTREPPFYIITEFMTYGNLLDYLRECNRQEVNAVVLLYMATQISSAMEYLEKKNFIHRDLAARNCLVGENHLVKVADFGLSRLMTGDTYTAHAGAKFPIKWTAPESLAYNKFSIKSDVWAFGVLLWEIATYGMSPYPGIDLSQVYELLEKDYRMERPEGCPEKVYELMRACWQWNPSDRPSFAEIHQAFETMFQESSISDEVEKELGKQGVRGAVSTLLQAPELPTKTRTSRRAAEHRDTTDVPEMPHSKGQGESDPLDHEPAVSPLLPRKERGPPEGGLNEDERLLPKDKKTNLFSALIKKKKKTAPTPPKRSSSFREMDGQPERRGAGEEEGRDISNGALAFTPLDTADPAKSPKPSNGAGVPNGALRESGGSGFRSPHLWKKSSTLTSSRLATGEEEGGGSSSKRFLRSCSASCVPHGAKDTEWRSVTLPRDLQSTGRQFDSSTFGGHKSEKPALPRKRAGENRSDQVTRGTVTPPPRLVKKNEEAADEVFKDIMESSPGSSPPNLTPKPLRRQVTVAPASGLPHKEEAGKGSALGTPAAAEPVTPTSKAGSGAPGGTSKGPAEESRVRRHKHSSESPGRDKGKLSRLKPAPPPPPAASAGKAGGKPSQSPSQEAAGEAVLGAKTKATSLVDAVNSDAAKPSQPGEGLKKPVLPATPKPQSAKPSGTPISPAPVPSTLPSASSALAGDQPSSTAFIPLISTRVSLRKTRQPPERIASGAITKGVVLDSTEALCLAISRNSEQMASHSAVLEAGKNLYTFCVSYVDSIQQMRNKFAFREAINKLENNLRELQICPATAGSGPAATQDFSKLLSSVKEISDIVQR
Target sequence in this assay (P11274 whole entry, the tested form may be a part): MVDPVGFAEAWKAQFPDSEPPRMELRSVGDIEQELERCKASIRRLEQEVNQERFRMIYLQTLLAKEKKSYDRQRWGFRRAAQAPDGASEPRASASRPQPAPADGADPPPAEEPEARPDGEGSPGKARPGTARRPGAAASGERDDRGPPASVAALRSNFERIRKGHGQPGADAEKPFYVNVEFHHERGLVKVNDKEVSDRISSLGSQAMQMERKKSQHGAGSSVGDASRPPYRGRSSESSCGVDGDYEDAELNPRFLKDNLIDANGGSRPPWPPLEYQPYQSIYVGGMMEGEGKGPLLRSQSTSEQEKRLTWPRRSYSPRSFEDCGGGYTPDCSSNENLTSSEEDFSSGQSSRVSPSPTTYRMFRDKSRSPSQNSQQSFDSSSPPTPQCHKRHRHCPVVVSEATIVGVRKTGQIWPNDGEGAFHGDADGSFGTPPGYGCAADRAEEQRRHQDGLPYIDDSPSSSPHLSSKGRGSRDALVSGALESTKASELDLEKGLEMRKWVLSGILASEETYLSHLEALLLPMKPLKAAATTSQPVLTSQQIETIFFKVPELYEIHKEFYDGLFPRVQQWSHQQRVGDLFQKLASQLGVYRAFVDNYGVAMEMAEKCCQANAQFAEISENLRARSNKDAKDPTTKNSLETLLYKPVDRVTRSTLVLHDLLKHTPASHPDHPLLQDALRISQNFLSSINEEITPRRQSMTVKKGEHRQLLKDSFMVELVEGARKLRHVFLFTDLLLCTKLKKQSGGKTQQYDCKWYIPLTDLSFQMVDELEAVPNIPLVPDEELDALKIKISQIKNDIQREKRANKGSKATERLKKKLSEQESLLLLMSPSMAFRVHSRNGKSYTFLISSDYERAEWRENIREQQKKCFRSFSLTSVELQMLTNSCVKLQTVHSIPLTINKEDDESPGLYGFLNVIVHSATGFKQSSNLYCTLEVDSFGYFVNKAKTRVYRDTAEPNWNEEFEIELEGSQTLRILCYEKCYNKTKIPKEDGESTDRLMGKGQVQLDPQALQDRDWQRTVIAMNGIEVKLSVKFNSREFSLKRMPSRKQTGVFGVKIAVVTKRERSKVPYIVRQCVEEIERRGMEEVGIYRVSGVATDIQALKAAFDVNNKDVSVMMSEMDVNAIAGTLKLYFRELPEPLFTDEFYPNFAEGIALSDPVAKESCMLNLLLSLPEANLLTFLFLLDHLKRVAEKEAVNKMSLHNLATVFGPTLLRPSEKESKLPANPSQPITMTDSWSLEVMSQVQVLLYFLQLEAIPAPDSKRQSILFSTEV
Target sequence in this assay (Q96SW2 whole entry, the tested form may be a part): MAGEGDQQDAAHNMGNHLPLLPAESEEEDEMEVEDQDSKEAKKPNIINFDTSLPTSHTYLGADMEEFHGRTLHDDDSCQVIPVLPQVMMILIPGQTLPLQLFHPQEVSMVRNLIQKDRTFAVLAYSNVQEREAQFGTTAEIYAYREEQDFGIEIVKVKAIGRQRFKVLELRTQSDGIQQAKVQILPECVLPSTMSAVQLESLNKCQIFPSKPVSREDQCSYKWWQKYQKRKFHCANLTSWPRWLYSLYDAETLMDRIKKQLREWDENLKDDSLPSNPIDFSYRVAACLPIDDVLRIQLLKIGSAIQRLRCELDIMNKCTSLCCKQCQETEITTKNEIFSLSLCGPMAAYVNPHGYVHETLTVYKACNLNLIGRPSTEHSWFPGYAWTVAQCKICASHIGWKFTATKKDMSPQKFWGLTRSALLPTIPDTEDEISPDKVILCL
Assay [2] concerns the target T1, Protein cereblon/Tyrosine-protein kinase ABL1/Breakpoint cluster region protein. As to the kind of experiment: Protac binding affinity at CRBN/BCR-ABL (unknown origin) assessed as binding to phosphorylated c-ABL kinase domain by Kinomescan assay. The assay is classed as protein assay.
Target sequence in this assay (P00519 whole entry, the tested form may be a part): as the sequence (P00519 whole entry, the tested form may be a part) above
Target sequence in this assay (P11274 whole entry, the tested form may be a part): as the sequence (P11274 whole entry, the tested form may be a part) above
Target sequence in this assay (Q96SW2 whole entry, the tested form may be a part): as the sequence (Q96SW2 whole entry, the tested form may be a part) above
For assay [3] the target is unchanged. As to the kind of experiment: Protac activity at CRBN/BCR-ABL in human K562 cells assessed as induction of BCR-ABL degradation at 1 uM incubated for 24 hrs by western blot analysis relative to control. The assay is classed as cell-based.
Target sequence in this assay (P00519 whole entry, looked up, the tested form may be a part): as the sequence (P00519 whole entry, the tested form may be a part) above
Target sequence in this assay (P11274 whole entry, looked up, the tested form may be a part): as the sequence (P11274 whole entry, the tested form may be a part) above
Target sequence in this assay (Q96SW2 whole entry, looked up, the tested form may be a part): as the sequence (Q96SW2 whole entry, the tested form may be a part) above
The target is the same in assay [4]. As to the kind of experiment: Protac activity at CRBN/BCR-ABL in human K562 cells assessed as induction of BCR-ABL degradation at 2.5 uM incubated for 24 hrs by western blot analysis relative to control. The format is cell-based.
Target sequence in this assay (P00519 whole entry, looked up, the tested form may be a part): as the sequence (P00519 whole entry, the tested form may be a part) above
Target sequence in this assay (P11274 whole entry, looked up, the tested form may be a part): as the sequence (P11274 whole entry, the tested form may be a part) above
Target sequence in this assay (Q96SW2 whole entry, looked up, the tested form may be a part): as the sequence (Q96SW2 whole entry, the tested form may be a part) above
In assay [5] the target is T2, von Hippel-Lindau disease tumor suppressor/Tyrosine-protein kinase ABL1/Breakpoint cluster region protein (Homo sapiens, UniProt P00519+P11274+P40337). As to the kind of experiment: Protac binding affinity at VHL/BCR-ABL (unknown origin) assessed as binding to phosphorylated c-ABL kinase domain by Kinomescan assay. The format is protein assay.
The target of assay [6] is T2, von Hippel-Lindau disease tumor suppressor/Tyrosine-protein kinase ABL1/Breakpoint cluster region protein. As to the kind of experiment: Protac binding affinity at VHL/BCR-ABL (unknown origin) assessed as binding to non phosphorylated c-ABL kinase domain by Kinomescan assay. The assay is classed as protein assay.

As a reminder, the Kd is the equilibrium constant for the complex coming apart.

T2 sequence (P00519 whole entry, the tested form may be a part): as the sequence (P00519 whole entry, the tested form may be a part) above
T2 sequence (P11274 whole entry, the tested form may be a part): as the sequence (P11274 whole entry, the tested form may be a part) above
T2 sequence (P40337 whole entry, the tested form may be a part): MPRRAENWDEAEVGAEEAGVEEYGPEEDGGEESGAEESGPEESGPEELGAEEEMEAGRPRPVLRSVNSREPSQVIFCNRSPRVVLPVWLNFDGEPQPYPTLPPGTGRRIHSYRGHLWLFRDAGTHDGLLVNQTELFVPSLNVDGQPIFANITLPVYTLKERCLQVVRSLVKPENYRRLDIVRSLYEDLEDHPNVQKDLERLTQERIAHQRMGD

As to `COc1cc(Nc2c(C#N)cnc3cc(OCCCN4CCN(CCCCCCOCCOCCOCCCCCC(=O)Nc5cccc6c5C(=O)N(C5CCC(=O)NC5=O)C6=O)CC4)c(OC)cc23)c(Cl)cc1Cl` (stereo not drawn), the Kd in assay [1] was 910 pM; in assay [2], 550 pM. Besides, the results for the Activity in assay [3] and in assay [4] were > 60% and > 80%, respectively.
For `COc1cc(Nc2c(C#N)cnc3cc(OCCCN4CCN(CCCCCCOCCOCCOCCOCCOCCOCC(=O)Nc5cccc6c5C(=O)N(C5CCC(=O)NC5=O)C6=O)CC4)c(OC)cc23)c(Cl)cc1Cl` (stereo not drawn), the dissociation constant Kd in assay [1] stood at 380 pM; in assay [2], 130 pM. The Activity in assay [3] was > 60%; in assay [4] it was > 80%.
As to `COc1cc(Nc2c(C#N)cnc3cc(OCCCN4CCN(CCCCCCOCCOCCOCCOCCOCCOCC(=O)N[C@H](C(=O)N5C[C@H](O)C[C@H]5C(=O)NCc5ccc(-c6scnc6C)cc5)C(C)(C)C)CC4)c(OC)cc23)c(Cl)cc1Cl`, the Kd in assay [5] turned out to be 300 pM; in assay [6], 570 pM.
In the case of `Cc1nc(Nc2ncc(C(=O)Nc3c(C)cccc3Cl)s2)cc(N2CCN(CCCCCCOCCOCCOCCCCCC(=O)Nc3cccc4c3C(=O)N(C3CCC(=O)NC3=O)C4=O)CC2)n1` (stereo not drawn), the Activity in assay [3] was > 60%; in assay [4] it was > 80%.
For the molecule `Cc1nc(Nc2ncc(C(=O)Nc3c(C)cccc3Cl)s2)cc(N2CCN(CCCCCCOCCOCC(=O)N[C@H](C(=O)N3C[C@H](O)C[C@H]3C(=O)NCc3ccc(-c4scnc4C)cc3)C(C)(C)C)CC2)n1`, the dissociation constant (Kd) in assay [5] worked out at 210 pM; in assay [6], 360 pM.
Turning to `COc1cc(Nc2c(C#N)cnc3cc(OCCCN4CCN(CCCCCCOCCOCC(=O)N[C@H](C(=O)N5C[C@H](O)C[C@H]5C(=O)NCc5ccc(-c6scnc6C)cc5)C(C)(C)C)CC4)c(OC)cc23)c(Cl)cc1Cl`, the equilibrium dissociation constant (Kd) in assay [5] turned out to be 670 pM; in assay [6], 1300 pM.
`Cc1nc(Nc2ncc(C(=O)Nc3c(C)cccc3Cl)s2)cc(N2CCN(CCCCCCOCCOCCOCCCCCC(=O)N[C@H](C(=O)N3C[C@H](O)C[C@H]3C(=O)NCc3ccc(-c4scnc4C)cc3)C(C)(C)C)CC2)n1`: the equilibrium dissociation constant (Kd) in assay [5] came out at 470 pM; in assay [6], 920 pM.
Taken in the same sequence, the figures for `Cc1nc(Nc2ncc(C(=O)Nc3c(C)cccc3Cl)s2)cc(N2CCN(CCCCCCOCCOCCOCCOCCOCCOCC(=O)N[C@H](C(=O)N3C[C@H](O)C[C@H]3C(=O)NCc3ccc(-c4scnc4C)cc3)C(C)(C)C)CC2)n1` were 88 pM and 280 pM.
For the molecule `COc1cc(Nc2c(C#N)cnc3cc(OCCCN4CCN(CCCCCCOCCOCC(=O)Nc5cccc6c5C(=O)N(C5CCC(=O)NC5=O)C6=O)CC4)c(OC)cc23)c(Cl)cc1Cl` (stereo not drawn), the results for the Kd in assay [1] and in assay [2] were 280 pM and 110 pM, respectively. Also, the Activity is > 60% in assay [3] and > 80% in assay [4].
For the molecule `Cc1nc(Nc2ncc(C(=O)Nc3c(C)cccc3Cl)s2)cc(N2CCN(CCCCCCOCCOCCOCCOCCOCCOCC(=O)Nc3cccc4c3C(=O)N(C3CCC(=O)NC3=O)C4=O)CC2)n1` (stereo not drawn), the Kd in assay [1] came out at 260 pM; in assay [2] it was 230 pM. Also, the values for the Activity in assay [3] and in assay [4] were > 60% and > 80%, respectively.

(Values after ChEMBL document CHEMBL4665907, “Breakthrough in Degradation of BCR-ABL Fusion Protein for the Treatment of Cancer” (ACS Med Chem Lett, 2020).)
